# Source: patent US20130158063A1, “Compounds, Compositions and Methods Related to PPAR Antagonists” (GEORGETOWN UNIVERSITY, priority 2010, published 2013)
# pEC50: −log10 of the molar value. “Also recorded” adds a separate entry of the source.
# How the values were obtained:
# [1] = system: Mouse mammary tumor cell lines MC, 437T, 105T and 34T; Comma1D mammary epithelial cell line; assay: Cytotoxicity against mammary cell lines; type: cell-based; conditions: 0-25 μM BTB07995, with and without GW501516
# Description: Mouse mammary tumor cell lines MC, 437T, 105T and 34T were generated from primary DMBA-induced tumors in wild-type FVB, MMTV-Pax8PPARγ transgenic, Sca-1 null and Sca-1+/EGFP mice. Comma1D is an immortalized mammary epithelial cell line.
# [2] = system: PPARα, PPARγ, PPARδ; assay: PPAR reporter assays, isotype profile over the three PPARs; conditions: for PPAR isotype selectivity in reporter assays: inhibition of activation by 1 μM agonist; for PPAR inhibitor type (Table 1): from reporter data
# [3] = molecular target: T1, PPARδ (Homo sapiens, UniProt Q03181); conditions: cited from earlier work
# T1 construct: purchased Cayman Chemicals
# T1 sequence (Q03181 1-441): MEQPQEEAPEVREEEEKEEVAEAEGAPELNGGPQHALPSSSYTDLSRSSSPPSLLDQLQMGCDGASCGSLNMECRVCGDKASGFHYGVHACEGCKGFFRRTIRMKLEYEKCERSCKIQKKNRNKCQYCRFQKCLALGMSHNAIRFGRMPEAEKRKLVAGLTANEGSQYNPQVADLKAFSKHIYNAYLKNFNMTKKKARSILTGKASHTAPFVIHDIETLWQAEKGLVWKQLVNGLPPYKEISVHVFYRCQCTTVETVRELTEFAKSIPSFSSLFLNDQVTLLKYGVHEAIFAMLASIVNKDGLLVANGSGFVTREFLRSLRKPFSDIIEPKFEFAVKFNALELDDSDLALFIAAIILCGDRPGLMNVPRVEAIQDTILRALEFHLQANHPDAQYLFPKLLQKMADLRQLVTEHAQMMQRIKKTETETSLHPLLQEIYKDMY
# [4] = molecular target: T2, PPARγ (Homo sapiens, UniProt P37231); assay: Fluorescent Polarization (FP) binding assay with corepressor peptides, PPARγ; conditions: FP assay; Nb = no binding; read-out: Binding assay EC50, γ
# T2 construct: purchased Cayman Chemicals
# T2 sequence (P37231 238-503 limits assumed): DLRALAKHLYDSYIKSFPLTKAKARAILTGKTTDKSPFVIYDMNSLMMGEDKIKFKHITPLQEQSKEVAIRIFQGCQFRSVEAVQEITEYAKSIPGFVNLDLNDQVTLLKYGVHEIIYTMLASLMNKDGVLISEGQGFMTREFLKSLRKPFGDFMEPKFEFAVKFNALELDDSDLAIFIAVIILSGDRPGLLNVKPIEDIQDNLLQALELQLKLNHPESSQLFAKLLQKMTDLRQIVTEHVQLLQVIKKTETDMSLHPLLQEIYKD
# Experimental: (§1) For PPARγ screening, a fluorescent ligand supplied by Cayman Chemicals was also used. All compounds were dissolved in DMSO as 10 mM stock solutions and the final DMSO content in the assay was <1%. A TECAN Ultra 485 multi-functional microplate reader and GraphPad prism 4 software were used for measurements and analysis, respectively.
# (§2) PPAR antagonists are expected to enhance the affinities of the corepressor peptides, and therefore, FP should increase as the compound concentration increases. Agonists would be expected to weaken the affinity of the same co-repressor peptide. Although this effect occurs for PPARγ, the dissociation of corepressor peptides varies for PPARα and PPARδ due to altered presentations of the overlapping coactivator/corepressor binding surfaces (Stanley T. B. et al. Biochemistry 42:9278-87, 2003). Compounds were screened initially against PPARγ and PPARδ at 1 and 100 μM. If binding was observed, titration experiments from 10 nM to 100 μM were carried out in triplicate with all three PPARs. […] For screening, either enhancement or weakening of FP was considered active.
# (§3) Virtual screening for PPARγ was conducted against 56,000 compounds from the Maybridge library that targeted the ligand binding domain (LBD) of PPARγ, and 10 conformations of each compound were docked to the LBD using Autdock4 software (Scripps Institute). Sixty of the top ranked compounds were ordered from Maybridge, and 58 were available for evaluation. Fluorescent Polarization (FP) assays were established with the tagged co-repressor peptides NCoR1 and SMRT, the recombinant PPARα and PPARγ ligand-binding domains and full-length PPARδ. […] Sd-107 and its analogs are disclosed herein. The chemical structure is shown below.
# [5] = system: PPARδ; assay: PPAR reporter assay in 293T cells, PPARδ (agonist GW501516); type: cell-based; conditions: 1 μM agonist GW501516
# [6] = molecular target: T3, PPARγ (Mus musculus, UniProt P37238); assay: PPAR reporter assay in 293T cells, PPARγ (agonist GW7845); type: cell-based; conditions: HEK-293T, 1 μM agonist GW7845, 293T cells, read-out: Reporter assay (% inhibition), γ; for inhibition at 1 µM: 1 μM compound; for inhibition at 10 µM: 10 μM compound; for inhibition at 25 µM: 25 μM compound
# T3 construct: expressed in transfected cells; host or cells: 293T cells
# T3 sequence (P37238 1-505): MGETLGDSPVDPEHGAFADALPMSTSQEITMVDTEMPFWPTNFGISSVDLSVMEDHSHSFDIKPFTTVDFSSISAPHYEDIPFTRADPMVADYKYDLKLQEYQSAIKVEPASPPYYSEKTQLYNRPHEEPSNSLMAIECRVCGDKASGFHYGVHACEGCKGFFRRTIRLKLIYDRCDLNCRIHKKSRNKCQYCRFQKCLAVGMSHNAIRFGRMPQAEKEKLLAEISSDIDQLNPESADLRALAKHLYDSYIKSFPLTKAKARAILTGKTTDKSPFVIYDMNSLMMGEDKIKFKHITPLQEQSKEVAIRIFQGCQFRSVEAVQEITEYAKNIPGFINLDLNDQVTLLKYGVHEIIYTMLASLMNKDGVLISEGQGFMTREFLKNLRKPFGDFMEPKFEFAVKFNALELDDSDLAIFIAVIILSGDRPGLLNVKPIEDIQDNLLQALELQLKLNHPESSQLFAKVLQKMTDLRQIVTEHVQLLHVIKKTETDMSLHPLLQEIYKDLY
# [7] = system: PPARα; assay: PPAR reporter assay in 293T cells, PPARα (agonist WY14643); type: cell-based; conditions: 1 μM agonist WY14643
# [8] = molecular target: T4, PPARα (Homo sapiens, UniProt Q07869); assay: Fluorescent Polarization (FP) binding assay with corepressor peptides, PPARα; conditions: Nb = no binding
# T4 construct: purchased Cayman Chemicals
# T4 sequence (Q07869 239-466 limits assumed): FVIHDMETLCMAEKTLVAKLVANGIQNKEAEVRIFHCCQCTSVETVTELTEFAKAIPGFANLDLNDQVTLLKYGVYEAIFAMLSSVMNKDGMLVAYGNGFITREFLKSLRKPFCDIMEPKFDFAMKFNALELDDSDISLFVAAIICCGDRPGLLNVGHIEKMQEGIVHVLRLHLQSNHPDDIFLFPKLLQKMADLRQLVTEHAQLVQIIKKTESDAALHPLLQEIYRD
# Experimental: as §1, §2, §3
# [9] = molecular target: T1, PPARδ; assay: Fluorescent Polarization (FP) binding assay with corepressor peptides, PPARδ; conditions: Nb = no binding
# Experimental: as §1, §2, §3
pEC50 [4],inhibition at 1 µM [6] [%],inhibition at 10 µM [6] [%],inhibition at 25 µM [6] [%],"Binding assay EC50, α [8]","Binding assay EC50, δ [9]",Structure (SMILES),Cytotoxicity to mouse mammary cell lines [1],"Agonist activity in Gal4-mPPAR reporter assays ([2]; 293T cells, 24 hr, absence of specific ligand)",PPAR isotype selectivity in reporter assays [2],PPARδ ligand potency and selectivity (literature) [3],"Reporter assay (% inhibition), δ ([5]; 1 μM compound) [%]","Reporter assay (% inhibition), δ ([5]; 10 μM compound) [%]","Reporter assay (% inhibition), δ ([5]; 25 μM compound) [%]","Reporter assay (% inhibition), α ([7]; 1 μM compound) [%]","Reporter assay (% inhibition), α ([7]; 10 μM compound) [%]","Reporter assay (% inhibition), α ([7]; 25 μM compound) [%]",PPAR inhibitor type (Table 1) [2]
,,,,,,"O=C(NCCS(=O)(=O)c1ccc(C(F)(F)F)cn1)c1ccc(Cl)cc1 [BTB07995, reference compound]",not cytotoxic,"not an agonist for PPARα, PPARδ and PPARγ",PPARδ selectivity at lower concentrations; also recorded: selective antagonist of PPARδ,potent and selective ligand for PPARδ,,,,,,,
6.25,0,40,85,nb,δ nb,O=C1NN(c2cccc(F)c2)C(=O)/C1=C\c1ccc(-c2ccc(S(=O)(=O)Nc3ncco3)cc2)o1 [Sd-107-10],,,greatest selectivity for PPARγ,,0,0,10,0,0,20,PPARγ inhibitor
4.65,0,0,10,nb,δ nb,CC(C)(C)c1ccc(S(=O)(=O)N(NC(=O)c2ccc(O)cc2)C(=O)c2ccc(O)cc2)cc1 [YL-1-88],,,,,0,14,40,0,0,0,PPARδ inhibitor
